Reference: patent US12611406B2, “Oxopiperazine derivatives for the treatment of cancer” (Inthera Bioscience AG, priority 2020, dated 2026)
Entries after “also recorded” stand apart in the source; their conditions may differ. Like-named read-outs stand apart in the source and are kept apart here.

Experiments:
[1] = 5-day daily intravenous repeated-dose TK study in CD-1 mice (mesylate salt); type: in vivo; conditions: for half-life: both sexes, CD-1, mouse, blood, intravenous
Method: The aim of the present study was to explore the TK of Compound 1 after 5 days of once daily intravenous dosing in male and female CD-1 mice, with a subsequent recovery phase of 9 days.
Compound 1 (mesylate salt) was administered once daily for 5 consecutive days by intravenous injection to groups of CD-1 mice (n=8/sex/group) at dose levels of 0 (control), 0.5, 2, 6, or 12 mg/kg/day. A suspension of 0.5% methylcellulose (w/v) in sterile water was used as vehicle. Blood samples were collected for hematology, clinical chemistry (Day 6 and 15), and pharmacokinetics evaluation.

[2] = test system: human enzymes, transporters, kinases, receptors and ion channels; test: In vitro safety pharmacology panels
Method: Compound 1 was tested using in vitro safety pharmacology panels encompassing human enzymes, transporters, kinases, receptors and ion channels thought to be potential contributors to adverse drug reactions.

[3] = test system: 22Rv1; test: 22Rv1 prostate cancer CDX mouse model; type: in vivo
Text: Left panel: Tumor growth curves. Right panel: Body weight development. The respective dosing regimen is indicated as bars below the x-axis. QD: once daily treatment; po: per os.
(§1) Left panel: Tumor growth curves. Right panel: Body weight development. The dosing regimen is indicated as dots below the curves. BID: twice daily treatment. QW: once weekly treatment. p.o.: per oral.
(§2) NCI-H660 cells represent a rather far advanced PC type in which not only the tumor suppressor functions of Rb1 and p53 have been lost (see Table 1). Furthermore, the cells already have developed a small cell phenotype characteristic of advanced treatment-resistant PC. In contrast, 22Rv1 tumor cells that are wild-type for Rb1 and p53 pathways were less sensitive to Compound 1 treatment when a once weekly dosing scheme was used.
(§3) Values larger than 100% indicate tumor regression.

[4] = test system: AR; test: AR-driven gene expression in LNCaP cells stimulated with DHT; type: cell-based; conditions: PSA (KLK3), TMPRSS2, SLC45A3; DHT induction; 30, 300, 3000 nM
Method: Compound 1 concentrations from left to right: 30, 300, 3000 nM. Basal level indicates expression level in cells with no DHT treatment.
In SCLC, the expression of p300 and CBP is associated with poor prognosis (see Gao et al, Int J Clin Exp Pathol. 2014 Jan. 15; 7(2):760-7) with high p300 and CBP expressions being independent prognostic markers of poor overall survival (OS) for resected SCLC patients.

[5] = Metabolic stability in intestinal microsomes; type: in vitro ADME; conditions: monkey compared to human
Method: In vitro testing also supports the use of mouse, Beagle dog, and cynomolgus monkey models to assay dosing and effectiveness of Compound 1. […] The metabolic profiles of hepatocytes from mouse, dog, and monkey that were cultured with Compound 1 were assessed. Similarly, the metabolic stability of Compound 1 was assayed in vitro using intestinal microsomes from mouse, rat, dog, monkey, and humans.

[6] = 28-day once weekly oral repeated-dose DRF TK study in Beagle dogs (mesylate salt), plasma; type: in vivo; conditions: for AUC / Cmax: both sexes, Beagle, dog, plasma, po
Method: The objective of the study was to determine the TK profile of Compound 1 following 4 weekly oral administrations to Beagle dog and to assess reversibility of any changes following a 13-day recovery period.
The test item Compound 1 (mesylate salt) was administered in 4 weekly doses by oral gavage to groups of Beagle dogs (n=2/sex/group) at dose levels of 10, 15, and 20 mg/kg bodyweight per week. A suspension of 0.5% methylcellulose (w/v) in sterile water served as vehicle. Blood samples for PK analysis were collected for each dosing day (Day 1, 8, 15, and 22) at pre-dose, 0.25, 0.5, 1, 2, 4, 6, 8, 12, and 24 hours after administration.
Total plasma concentrations of Compound 1 were analyzed using a qualified LC-MS/MS method.
Dosing at 15 mg/kg/adm was limited to 2 weekly doses, since animals were subjected to necropsy investigation 3 days after the second dose (Day 8) in order to investigate possible macroscopic changes during the treatment period. n.d.: not determined. AUC parameters were calculated using GraphPad Prism version 9.

[7] = Plasma protein binding, equilibrium dialysis; type: in vitro ADME, cynomolgus monkey; conditions: monkey plasma, 37° C, buffer pH 7.4; read-out: Fraction unbound (Fu), Mean
Method: Protein binding of Compound 1 to the plasma from several species, i.e., human, cynomolgus monkey, dog, rat, and mouse was investigated in vitro by incubation in plasma and determination of unbound fraction of Compound 1 using equilibrium dialysis. Compound 1 was incubated in 100% species-specific plasma and added to one side of the membrane in an equilibrium dialysis system while buffer (pH 7.4) is added to the other side. The system was allowed to reach equilibrium at 37° C. Compound concentration on both sides of the membrane is measured by liquid chromatography—tandem mass spectroscopy (LC-MS/MS).

[8] = test system: NCI-H660; test: NCI-H660 prostate cancer CDX mouse model; type: in vivo; conditions: for Tumor growth inhibition: 6 weeks
Text: as §1, §2, §3

[9] = 10 mg/kg, 10 mg/kg weekly, Day 1
[10] = 10 mg/kg, 10 mg/kg weekly, Day 8
[11] = 10 mg/kg, 10 mg/kg weekly, Day 15
[12] = 10 mg/kg, 10 mg/kg weekly, Day 22
[13] = 15 mg/kg, 15 mg/kg weekly, Day 1
[14] = 15 mg/kg, 15 mg/kg weekly, Day 8

Which “group mean initial blood concentration (CO)” value ([1]; 0.5 mg/kg/day, Day 1) does the source give for `CC(C)C[C@@H]1NCCN([C@@H](CC(C)C)C(=O)N2CCC3(C[C@@H]2C)OCC(CN2CCCC2)CO3)C1=O` (stereo partly drawn) [Compound 1, (S)-3-isobutyl-1-((S)-4-methyl-1-((S)-8-methyl-3-(pyrrolidin-1-ylmethyl)-1,5-dioxa-9-azaspiro[5.5]undecan-9-yl)-1-oxopentan-2-yl)piperazin-2-one] here?
The value was 111 ng/mL.

And the CO ([1]; 0.5 mg/kg/day, Day 5, female)?
The CO was 112 ng/mL.

What about the CO ([1]; 0.5 mg/kg/day, Day 5, male) of the same compound?
The CO was 191 ng/mL.

And the “group mean initial blood concentration (CO)” value ([1]; 2 mg/kg/day, Day 1)?
The value was 386 ng/mL.

What about the CO ([1]; 2 mg/kg/day, Day 5, female) of the same compound?
Its CO is 391 ng/mL.

And the CO ([1]; 2 mg/kg/day, Day 5, male)?
Its CO is 275 ng/mL.

What about the “group mean initial blood concentration (CO)” value ([1]; 6 mg/kg/day, Day 1) of the same compound?
Its value is 1257 ng/mL.

And the CO ([1]; 6 mg/kg/day, Day 5, female)?
The CO was 641 ng/mL.

What about the CO ([1]; 6 mg/kg/day, Day 5, male) of the same compound?
The CO was 778 ng/mL.

And the “group mean initial blood concentration (CO)” value ([1]; 12 mg/kg/day, Day 1)?
The value was 1725 ng/mL.

What about the CO ([1]; 12 mg/kg/day, Day 5, female) of the same compound?
The CO was 1548 ng/mL.

And the CO ([1]; 12 mg/kg/day, Day 5, male)?
The CO was 1531 ng/mL.

And the tolerability ([1]; 0.5, 2, 6, and 12 mg/kg/day intravenously once daily for 5 consecutive days)?
The tolerability was “well tolerated; also recorded: well-tolerated”.

And the half-life ([1]; all groups, Day 1, read-out: terminal half-life)?
The half-life was 1.1 to 1.3 h.

And the half-life ([1]; over the dose interval, Day 5, read-out: elimination half-life)?
The half-life was 1.1 to 1.9 h.

What about the “responses in safety pharmacology panels” value [2] of the same compound?
Its value is “No significant responses were detected”.

What about the tumor response ([3]; 3 mg/kg oral) of the same compound?
Its tumor response is “cytostatic growth inhibition”.

What about the “anti-tumor activity, every other week vs daily” value ([3]; 3 mg/kg oral, 7d on/7d off compared to same dose daily) of the same compound?
The value was “almost the same anti-tumor growth activity”.

And the Tumor growth inhibition ([3]; 30 mg/kg BID once weekly (60 mg/kg weekly))?
The Tumor growth inhibition was “approx. 50%”.

What about the Tumor growth inhibition ([3]; once weekly 60 mg/kg/day as 30 mg/kg BID, 5 weeks, p 0.001) of the same compound?
The Tumor growth inhibition was 47% (0.001)/**5 weeks.

What about the “AR target gene expression” value [4] of the same compound?
The value was “effectively downregulates target genes”.

And the “stability in intestinal microsomes” value [5]?
Its value is “lower stability”.

And the clinical signs ([6]; 15 mg/kg/adm, limited to 2 oral doses (Days 1 and 8))?
Its clinical signs is “reduced food and water intake”.

What about the AUC [6, 9] of the same compound?
Its AUC is 1.72 µg·h/mL.

What about the Cmax [6, 9] of the same compound?
Its Cmax is 0.536 µg/mL.

And the AUC [6, 10]?
Its AUC is 1.59 µg·h/mL.

And the Cmax [6, 10]?
Its Cmax is 0.512 µg/mL.

And the AUC [6, 11]?
The AUC was 1.66 µg·h/mL.

What about the Cmax [6, 11] of the same compound?
The Cmax was 0.497 µg/mL.

And the AUC [6, 12]?
Its AUC is 1.17 µg·h/mL.

What about the Cmax [6, 12] of the same compound?
Its Cmax is 0.36 µg/mL.

And the AUC [6, 13]?
Its AUC is 2.63 µg·h/mL.

And the Cmax [6, 13]?
The Cmax was 0.752 µg/mL.

And the AUC [6, 14]?
Its AUC is 2.3 µg·h/mL.

And the Cmax [6, 14]?
The Cmax was 0.506 µg/mL.

What about the AUC ([6]; 20 mg/kg, Day 1) of the same compound?
The AUC was 3.01 µg·h/mL.

What about the Cmax ([6]; 20 mg/kg, Day 1) of the same compound?
The Cmax was 0.994 µg/mL.

What about the tolerability ([6]; single oral administration of 20 mg/kg/adm, 20 mg/kg) of the same compound?
Its tolerability is “serious adverse event (SAE) on day 5; also recorded: not tolerated in one female Beagle dog”.

What about the tolerability ([6]; weekly oral for 4 consecutive weeks at 10 mg/kg/adm) of the same compound?
The tolerability was “tolerated”.

And the fraction unbound [7]?
The fraction unbound was 0.602.

And the Tumor growth inhibition ([8]; once weekly 15 mg/kg/day, p 0.002)?
The Tumor growth inhibition was 74% (0.002)/.

What about the Tumor growth inhibition ([8]; once weekly 30 mg/kg/day, p 0.001) of the same compound?
The Tumor growth inhibition was 84% (0.001).

What about the tumor growth ([8]; once weekly 60 mg/kg) of the same compound?
The tumor growth was “complete block of tumor growth”.

And the Tumor growth inhibition ([8]; once weekly 60 mg/kg/day single dose, p <0.001)?
The Tumor growth inhibition was 99% (<0.001)/*6 weeks.
